Measurements: ChEMBL document CHEMBL1146094, “Screening for cardiovascular safety: a structure-activity approach for guiding lead selection of melanin concentrating hormone receptor 1 antagonists” (J Med Chem, 2006)

Key:
IMR-32 [1] = experiment: Inhibition of MCH-mediated calcium release in whole IMR32 cells by FLIPR assay; type: functional, cell-based; settings: Homo sapiens
Rattus norvegicus [2] = experiment: End-of-study drug concentration in inactin-anesthetized Sprague-Dawley rat brain; type: functional
Rattus norvegicus [3] = experiment: End-of-study drug concentration in inactin-anesthetized Sprague-Dawley rat plasma; type: functional
IMR-32 [4] = experiment: Inhibition of MCH-mediated calcium release in whole IMR32 cells at 10 uM by FLIPR assay; type: functional; settings: Homo sapiens
[5] = biological target: Melanin-concentrating hormone receptor 1 (Homo sapiens, UniProt Q99705); experiment: Displacement of [125I]MCH from MCHr1 expressed in IMR32 (I3.4.2) cells; type: cell-based
[6] = AUC in DIO mice plasma at 10 mg/kg, po; type: ADME, organism-based; parameters: dose 10 mg/kg, route oral; settings: mouse
Mus musculus = experiment: AUC in DIO mice brain at 10 mg/kg, po; type: ADME, organism-based; parameters: dose 10 mg/kg, route oral; settings: in vivo

Sequence of Melanin-concentrating hormone receptor 1 (Q99705 whole entry): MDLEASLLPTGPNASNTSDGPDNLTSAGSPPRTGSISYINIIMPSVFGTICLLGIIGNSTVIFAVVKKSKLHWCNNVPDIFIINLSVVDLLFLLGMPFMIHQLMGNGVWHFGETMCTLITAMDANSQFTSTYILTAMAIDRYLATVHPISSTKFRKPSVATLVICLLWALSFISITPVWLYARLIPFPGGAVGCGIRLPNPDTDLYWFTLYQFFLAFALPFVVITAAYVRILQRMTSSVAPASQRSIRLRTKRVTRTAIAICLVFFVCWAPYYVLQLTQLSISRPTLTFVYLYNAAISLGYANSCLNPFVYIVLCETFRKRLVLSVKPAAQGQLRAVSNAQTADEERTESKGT

Row | Compound | IC50 (IMR-32 [1]) [nM] | IC50 [5] [nM] | AUC [6] [ng·h/mL] | AUC (Mus musculus) [µg·h/g] | Activity (Rattus norvegicus [2]) [µg/g] | Activity (Rattus norvegicus [3]) [µM] | inhibition at 10 µM (IMR-32 [4]) [%]
1 | O=C(Cc1ccc(OCc2ccccc2)cc1)Nc1ccc2c(cnn2CCN2CCCC2)c1 | – | – | – | – | 46 | 53 | 14
2 | O=C(NC1CCN(Cc2ccc3c(c2)OCO3)CC1)c1cc(Cl)ccc1NCc1nccs1 | 53 | – | – | – | – | 91 | –
3 | O=C(Nc1ccc(Oc2ccccc2)cc1)Nc1ccc2nn(CCN3CCCC3)cc2c1 | 314 | 46 | – | – | 6 | 558 | –
4 | O=C(NC1CCN(Cc2ccc3c(c2)OCO3)CC1)c1cc(=O)c2cc(Cl)c(Cl)cc2o1 | 83 | 3 | – | – | 63 | 42 | –
5 | CC(C)OCCNc1ncc(Cl)cc1C(=O)NC1CCCN(Cc2ccc3c(c2)OCO3)C1 (configuration not stated) | – | – | – | – | 138 | 61 | 30
6 | COc1ccc2c(=O)cc(C(=O)NC3CCN(Cc4ccc5c(c4)OCO5)CC3)oc2c1 | 73 | 6 | 18700 | 4.4 | 158 | 66 | –
7 | O=C(Nc1ccc(Oc2ccccc2)cc1)Nc1ccc2c(cnn2CCN2CCCCCC2)c1 | 103 | 4 | – | – | – | – | –
8 | O=C(Nc1ccc(Oc2ccccc2)cc1)Nc1ccc2c(cnn2CCN2CCCCC2)c1 | 136 | 5 | – | – | 13 | 77 | –
9 | O=C(Nc1ccc(Oc2ccccc2)cc1)Nc1ccc2c(cnn2CCN2CCCC2)c1 | – | – | – | – | 10 | 88 | –
10 | COc1ccc2nccc(NC3CCN(Cc4ccc5c(c4)OCO5)CC3)c2c1 | 74 | 10 | – | – | – | – | –

Now from value to molecule, other results behind:

Row | IC50 (IMR-32 [1]) [nM] | IC50 [5] [nM] | AUC [6] [ng·h/mL] | AUC (Mus musculus) [µg·h/g] | Compound | Activity (Rattus norvegicus [2]) [µg/g] | Activity (Rattus norvegicus [3]) [µM] | inhibition at 10 µM (IMR-32 [4]) [%]
11 | 11 | – | – | – | O=C(Cc1ccc(OCc2ccccc2)cc1)Nc1ccc2cnn(CCN3CCCC3)c2c1 | 10 | 23 | –
12 | 25 | – | – | – | CC(C)OCCNc1ncc(Cl)cc1C(=O)NC1CCN(Cc2ccc3c(c2)OCO3)CC1 | 88 | 44 | –
13 | 11 | 2 | – | – | COc1ccc2oc(O)c/c(=N\C3CCN(Cc4ccc5c(c4)OCO5)CC3)c2c1 | 71 | 272 | –
14 | > 10000 | 3630 | – | – | COc1ccc(CC(=O)Nc2ccc3cnn(CCN4CCCC4)c3c2)cc1 | 6 | 39 | 14
15 | 71 | – | – | – | O=C(Cc1ccc(OCc2ccccc2)cc1)Nc1cccc2c1cnn2CCN1CCCC1 | – | 4 | –
16 | 309 | 78 | – | – | O=C(Cc1ccc(Oc2ccccc2)cc1)Nc1ccc2c(cnn2CCN2CCCC2)c1 | – | 2 | –
17 | 214 | 57 | 1020 | 0 | O=C(Nc1ccc(Oc2ccccc2)cc1)Nc1ccc2nn(CCN3CC[C@H](O)C3)cc2c1 | 3 | 201 | –
18 | 376 | 16 | – | – | Clc1ccc2[nH]nc(NC3CCN(Cc4ccc5c(c4)OCO5)CC3)c2c1 | 30 | 22 | –
